Results as given in patent US9029559B2, “Substituted 3-heteroaroylamino-propionic acid derivatives and their use as pharmaceuticals” (SANOFI, priority 2011, dated 2015).

What follows are compounds tested against Recombinant human cathepsin A (Homo sapiens (Human), UniProt P10619) (assay: Cathepsin A inhibitory activity (cleavage of Bodipy FL-labeled bradykinin, microfluidic capillary electrophoresis)). Details: read-out: Activity (IC50, cathepsin A inhibitory activity).
Format: biochemical

Recombinant human cathepsin A, sequence (P10619 29-326): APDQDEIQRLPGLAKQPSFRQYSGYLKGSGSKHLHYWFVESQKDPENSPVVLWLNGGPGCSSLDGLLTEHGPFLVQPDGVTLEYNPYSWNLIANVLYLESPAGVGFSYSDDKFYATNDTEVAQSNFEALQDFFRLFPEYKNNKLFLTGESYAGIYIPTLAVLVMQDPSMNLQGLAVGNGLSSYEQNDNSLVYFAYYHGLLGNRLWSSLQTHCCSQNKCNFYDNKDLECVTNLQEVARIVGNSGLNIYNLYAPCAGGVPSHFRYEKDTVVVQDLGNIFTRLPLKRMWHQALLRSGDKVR
Recombinant human cathepsin A, sequence (P10619 327-480): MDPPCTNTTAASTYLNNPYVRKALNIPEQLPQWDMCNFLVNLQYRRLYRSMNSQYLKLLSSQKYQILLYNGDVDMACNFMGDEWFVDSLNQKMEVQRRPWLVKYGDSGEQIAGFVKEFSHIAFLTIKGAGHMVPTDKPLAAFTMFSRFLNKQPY

IC50 [µM]	SMILES
> 10	COc1ncc(C(=O)N[C@@H](CC(=O)O)c2ccccc2Cl)cc1-c1cccc(-c2ccccc2)c1 [compound 400]
7.14	COc1ncc(C(=O)N[C@@H](CC(=O)O)c2ccccc2Cl)cc1-c1ccc(F)cc1C [compound 404]
3.9	COc1ncc(C(=O)N[C@@H](CC(=O)O)c2ccccc2C)cc1-c1ccccc1 [compound 405]
10	COc1ncc(C(=O)N[C@@H](CC(=O)O)c2ccccc2C)cc1-c1ccc(F)c(Cl)c1 [compound 406]
4.39	COc1ncc(C(=O)N[C@@H](CC(=O)O)c2ccccc2C)cc1-c1ccc(F)cc1 [compound 407]
5.73	COc1ncc(C(=O)N[C@@H](CC(=O)O)c2ccccc2C)cc1-c1ccc(Cl)cc1 [compound 408]
9.04	COc1ccc(-c2cc(C(=O)N[C@@H](CC(=O)O)c3ccccc3C)cnc2OC)cc1 [compound 409]
5.38	COc1ncc(C(=O)N[C@@H](CC(=O)O)c2ccccc2C)cc1-c1ccc(C)cc1 [compound 410]
1.19	COc1ncc(C(=O)N[C@@H](CC(=O)O)c2ccccc2C)cc1-c1ccccc1C [compound 411]
8.36	COc1cccc(-c2cc(C(=O)N[C@@H](CC(=O)O)c3ccccc3C)cnc2OC)c1 [compound 412]
6.24	COc1ncc(C(=O)N[C@@H](CC(=O)O)c2ccccc2C)cc1-c1cccc(Cl)c1 [compound 413]
8.07	COc1ncc(C(=O)N[C@@H](CC(=O)O)c2ccccc2C)cc1-c1cccc(F)c1 [compound 414]
3.42	COc1ccccc1-c1cc(C(=O)N[C@@H](CC(=O)O)c2ccccc2C)cnc1OC [compound 416]
4.86	COc1ncc(C(=O)N[C@@H](CC(=O)O)c2ccccc2C)cc1-c1cccc(C)c1 [compound 417]
1.08	COc1ncc(C(=O)N[C@@H](CC(=O)O)c2ccccc2C)cc1-c1ccccc1F [compound 418]
10.4	COc1ncc(C(=O)N[C@@H](CC(=O)O)c2ccccc2C)cc1-c1ccc(C#N)cc1 [compound 421]
> 10	COc1ncc(C(=O)N[C@@H](CC(=O)O)c2ccccc2C)cc1-c1cccc(-c2ccccc2)c1 [compound 423]
8.84	COc1ncc(C(=O)N[C@@H](CC(=O)O)c2ccccc2C)cc1-c1ccc(F)c(F)c1 [compound 425]
1.54	COc1ccc(C(=O)N[C@@H](CC(=O)O)c2ccccc2Cl)nc1-c1cccc(F)c1 [compound 426]

IC50 [µM]	SMILES
7.11	COc1ccc(C(=O)N[C@@H](CC(=O)O)c2ccccc2Cl)nc1-c1ccc2ccccc2c1 [compound 427, (S)-3-(2-Chloro-phenyl)-3-[(5-methoxy-6-naphthalen-2-yl-pyridine-2-carbonyl)-amino]-propionic acid]
8.26	COc1ccc(C(=O)N[C@@H](CC(=O)O)c2ccccc2Cl)nc1-c1cccc(C#N)c1 [compound 433]
4.2	COc1ccc(C(=O)N[C@@H](CC(=O)O)c2ccccc2Cl)nc1-c1cccc(C(C)=O)c1 [compound 435]
2.97	COc1ccc(C(=O)N[C@@H](CC(=O)O)c2ccccc2Cl)nc1-c1cccc(-c2ccccc2)c1 [compound 436]
2.39	COc1ccc(C(=O)N[C@@H](CC(=O)O)c2ccccc2Cl)nc1-c1cc(F)cc(F)c1 [compound 439]
1.96	COc1ccc(C(=O)N[C@@H](CC(=O)O)c2ccccc2Cl)nc1-c1ccc(F)c(F)c1 [compound 440]
8.04	COc1ccc(C(=O)N[C@@H](CC(=O)O)c2ccccc2Cl)nc1-c1ccncc1 [compound 443]
10.1	COc1ccc(C(=O)N[C@@H](CC(=O)O)c2ccccc2Cl)nc1-c1cccnc1 [compound 444]
2.02	COc1ccc(C(=O)N[C@@H](CC(=O)O)c2ccccc2Cl)nc1-c1ccc(C)c(F)c1 [compound 449]
1.6	COc1ccc(C(=O)N[C@@H](CC(=O)O)c2ccccc2Cl)nc1-c1ccc(C)cc1C [compound 450]
3.79	COc1ccc(C(=O)N[C@@H](CC(=O)O)c2ccccc2Cl)nc1-c1ccc(F)c(C)c1 [compound 451]
6.49	COc1ccc(C(=O)N[C@@H](CC(=O)O)c2ccccc2Cl)nc1-c1ccc(F)nc1 [compound 453]
2.5	COc1ccc(C(=O)N[C@@H](CC(=O)O)c2ccccc2Cl)nc1-c1ccccc1C(=O)N(C)C [compound 454]
1.15	COc1ccc(Cl)cc1-c1nc(C(=O)N[C@@H](CC(=O)O)c2ccccc2Cl)ccc1OC [compound 459]
8.31	COc1ccc(OC)c(-c2nc(C(=O)N[C@@H](CC(=O)O)c3ccccc3Cl)ccc2OC)c1 [compound 461]
6.8	COc1ccc(C(=O)N[C@@H](CC(=O)O)c2ccccc2C)nc1-c1ccc(C#N)cc1 [compound 465]
5.63	COc1ccc(C(=O)N[C@@H](CC(=O)O)c2ccccc2C)nc1-c1cc(C)cnc1Cl [compound 469]
4.23	COc1ccc(C(=O)N[C@@H](CC(=O)O)c2ccccc2C)nc1-c1cccc(-c2nnc(C)o2)c1 [compound 471, (S)-3-({5-Methoxy-6-[3-(5-methyl-[1,3,4]oxadiazol-2-yl)-phenyl]-pyridine-2-carbonyl}-amino)-3-o-tolyl-propionic acid]

Same assay, conditions: read-out: Activity [μM] (IC50, cathepsin A inhibitory activity)

SMILES	IC50 [µM]
COc1ccc(C(=O)N[C@@H](CC(=O)O)c2ccccc2Cl)nc1-c1ccc(F)c(Cl)c1 [compound 332]	5.24
COc1ccc(C(=O)N[C@@H](CC(=O)O)c2ccccc2Cl)nc1-c1ccc(Cl)cc1 [compound 334]	1.81
COc1ccc(-c2nc(C(=O)N[C@@H](CC(=O)O)c3ccccc3Cl)ccc2OC)cc1 [compound 335]	2.25
COc1ccc(C(=O)N[C@@H](CC(=O)O)c2ccccc2Cl)nc1-c1ccc(C)cc1 [compound 336]	3.13
COc1ccc(C(=O)N[C@@H](CC(=O)O)c2ccccc2Cl)nc1-c1ccc(C(F)(F)F)cc1 [compound 337]	9.5
COc1cccc(-c2nc(C(=O)N[C@@H](CC(=O)O)c3ccccc3Cl)ccc2OC)c1 [compound 339]	2.78
COc1ccc(C(=O)N[C@@H](CC(=O)O)c2ccccc2Cl)nc1-c1cccc(Cl)c1 [compound 340]	1.51
COc1ncc(C(=O)N[C@@H](CC(=O)O)c2ccccc2Cl)cc1-c1cccc(F)c1 [compound 341]	9.86
COc1ncc(C(=O)N[C@@H](CC(=O)O)c2ccccc2Cl)cc1-c1ccccc1 [compound 344, (S)-3-(2-Chloro-phenyl)-3-[(6-methoxy-5-phenyl-pyridine-3-carbonyl)-amino]-propionic acid]	3.49
COc1ncc(C(=O)N[C@@H](CC(=O)O)c2ccccc2Cl)cc1-c1ccc(F)cc1 [compound 346]	8.26
COc1ccc(C(=O)N[C@@H](CC(=O)O)c2ccccc2C)nc1-c1ccc(F)c(Cl)c1 [compound 349]	1.46
COc1ccc(C(=O)N[C@@H](CC(=O)O)c2ccccc2C)nc1-c1cccc(C#N)c1 [compound 359]	4.49
COc1ccc(C(=O)N[C@@H](CC(=O)O)c2ccccc2C)nc1-c1cccc(C(C)=O)c1 [compound 360]	2.42
COc1ccc(C(=O)N[C@@H](CC(=O)O)c2ccccc2C)nc1-c1ccc(C(C)=O)cc1 [compound 361]	9.24
COc1ccc(C(=O)N[C@@H](CC(=O)O)c2ccccc2C)nc1-c1cc(F)cc(F)c1 [compound 362]	1.43
COc1ccc(C(=O)N[C@@H](CC(=O)O)c2ccccc2C)nc1-c1ccc(C(C)=O)s1 [compound 364]	9.25
COc1ccc(C(=O)N[C@@H](CC(=O)O)c2ccccc2C)nc1-c1ccncc1 [compound 365]	5.45
COc1ccc(C(=O)N[C@@H](CC(=O)O)c2ccccc2C)nc1-c1ccc(C)c(F)c1 [compound 370]	1.58
COc1ccc(C(=O)N[C@@H](CC(=O)O)c2ccccc2C)nc1-c1cncnc1 [compound 372]	8.88
COc1ccc(C(=O)N[C@@H](CC(=O)O)c2ccccc2C)nc1-c1ccc(F)nc1 [compound 373]	1.6
COc1ccc(C(=O)N[C@@H](CC(=O)O)c2ccccc2C)nc1-c1ccccc1C(=O)N(C)C [compound 374]	2.48
COc1ccc(C(=O)N[C@@H](CC(=O)O)c2ccccc2C)nc1-c1ccc(C)o1 [compound 376]	6.1
COc1ccc(C(=O)N[C@@H](CC(=O)O)c2ccccc2C)nc1-c1cc(C)cc(Cl)c1 [compound 378]	7.49
COc1ccc(C(=O)N[C@@H](CC(=O)O)c2ccccc2C)nc1-c1ccc2ccn(C)c2c1 [compound 380]	5.33
COc1ccc(C(=O)N[C@@H](CC(=O)O)c2ccccc2C)nc1-c1ccnc(N2CCOCC2)c1 [compound 381]	> 10
COc1ccc(C(=O)N[C@@H](CC(=O)O)c2ccccc2C)nc1-c1cccc(F)c1Cl [compound 383]	1.64
COc1ccc(C(=O)N[C@@H](CC(=O)O)c2ccccc2C)nc1-c1cccc(C2(O)COC2)c1 [compound 384]	2.39
COc1ccc(C(=O)N[C@@H](CC(=O)O)c2ccccc2C)nc1-c1cccc(C(C)(C)O)c1 [compound 385]	1.15
COc1ncc(C(=O)N[C@@H](CC(=O)O)c2ccccc2Cl)cc1-c1ccc(Cl)cc1 [compound 386]	10.4
COc1ncc(C(=O)N[C@@H](CC(=O)O)c2ccccc2Cl)cc1-c1cccc(Cl)c1 [compound 392, (S)-3-(2-Chloro-phenyl)-3-{[5-(3-choro-phenyl)-6-methoxy-pyridine-3-carbonyl]-amino}-propionic acid]	10.3

More lines, now with the values ahead:

IC50 [µM]	SMILES
9.43	COc1ccc(-c2cc(C(=O)N[C@@H](CC(=O)O)c3ccccc3Cl)cnc2OC)cc1 [compound 387]
7.12	COc1ncc(C(=O)N[C@@H](CC(=O)O)c2ccccc2Cl)cc1-c1ccc(C)cc1 [compound 388]
10.6	COc1cccc(-c2cc(C(=O)N[C@@H](CC(=O)O)c3ccccc3Cl)cnc2OC)c1 [compound 391]
3.76	COc1ccccc1-c1cc(C(=O)N[C@@H](CC(=O)O)c2ccccc2Cl)cnc1OC [compound 394]
6.57	COc1ncc(C(=O)N[C@@H](CC(=O)O)c2ccccc2Cl)cc1-c1cccc(C)c1 [compound 395]
